# Key:
# Staphylococcus aureus = test: Disk zone of inhibition / antibacterial activity; type: cell-based; design: key to Zone of inhibition: +++: High inhibition; ++: moderate inhibition; +: low inhibition; -: non inhibition; conditions: S. aureus; for MIC: Staphylococcus aureus
# Method: (§1) The following seven bacteria were grown on nutrient agar slants for 48 hours at 37° C.: Enterobacter aerogens, Propionibacterium acnes, Pseudomonas aeruginosa, Escherichia coli, Bacillus subtilis, Agrobacterium tumefaciens, and Staphylococcus aureus.
# (§2) A bacterial colony from each of the respective slants was suspended in 1 ml sterile deionized water. 0.1 ml of each cell suspension was evenly spread on nutrient agar plates (10×10^5 cells/ml). After 30 min, sclareol and sclareolide-impregnated disks were placed on bacteria-lawned plates. The sclareol and sclareolide used in this experiment were relatively pure samples (greater than 99% pure). Triplicate disks of (10, 100, 500, and 1000 ug/disk) of each sample was applied on to 6 mm diameter (0.3 mm thickness) filter paper disks and air dried. Controls were prepared with respective solvents. Plates were incubated for 24-48 hr at 37° C. The inhibition zones were measured and recorded after 15 hr, up to 48 hr.
# (§3) A summary of the effects of sclareol and sclareolide against the bacteria and fungi tested in Examples 1 and 2 is provided in Table 3. The data is presented as the effect of sclareol and sclareolide on selected microbial cultures, in terms of minimum inhibitory concentration, as measured in μg/ml.
# Enterobacter aerogens = test: Disk zone of inhibition / antibacterial activity; type: cell-based; design: key to Zone of inhibition: +++: High inhibition; ++: moderate inhibition; +: low inhibition; -: non inhibition; conditions: E. aerogens; for MIC: Enterobacter
# Method: as §1, §2, §3
# Bacillus subtilis = test: Disk zone of inhibition / antibacterial activity; type: cell-based; design: key to Zone of inhibition: +++: High inhibition; ++: moderate inhibition; +: low inhibition; -: non inhibition; conditions: for MIC: Bacillus subtilis, B. subtilis; for Zone of inhibition: D. subtilis [sic]
# Method: as §1, §2, §3
# Escherichia coli = test: Disk zone of inhibition / antibacterial activity; type: cell-based; design: key to Zone of inhibition: +++: High inhibition; ++: moderate inhibition; +: low inhibition; -: non inhibition; conditions: E. coli; for MIC: Escherichia coli
# Method: as §1, §2, §3
# [1] = system: Agrobacterium tumefaciens; test: Disk zone of inhibition / antibacterial activity; type: cell-based; design: key to Zone of inhibition: +++: High inhibition; ++: moderate inhibition; +: low inhibition; -: non inhibition; conditions: A. tumefaciens; for MIC: Agrobacterium tumefaciens
# Method: as §1, §2, §3
# Propionibacterium acnes = test: Disk zone of inhibition / antibacterial activity; type: cell-based; design: key to Zone of inhibition: +++: High inhibition; ++: moderate inhibition; +: low inhibition; -: non inhibition; conditions: P. acnes; for MIC: Cutibacterium acnes
# Method: as §1, §2, §3
# Pseudomonas aeruginosa = test: Disk zone of inhibition / antibacterial activity; type: cell-based; design: key to Zone of inhibition: +++: High inhibition; ++: moderate inhibition; +: low inhibition; -: non inhibition; conditions: P. aeruginosa; for MIC: Pseudomonas aeruginosa
# Method: as §1, §2, §3
# Aspergillus flavus = test: Antifungal MIC on potato dextrose agar; type: cell-based; conditions: PDA, 26° C., 48 hr up to one week
# Method: (§4) The yeast and fungi listed below in Table 2 were grown on potato dextrose agar (PDA) containing different concentrations of sclareol and sclareolide, according to the following method: sclareol or sclareolide (in powder form) was added to pre-measured amounts of PDA medium in petri plates, mixed thoroughly by tilting the petri plate from side to side, and allowed to solidify. The sclareol and […] in preparing the petri plates was of greater than 99% purity. After solidification, the plates were inoculated with 5 mm disks, cut from the outer margin of the actively growing cultures of yeast and fungi and placed in the center of the plate in an inverted position in direct contact with the sclareol/sclareolide impregnated medium. The plates were incubated at 26° C. The plates were monitored periodically to estimate the minimum inhibitory concentration (MIC) based on the growth proliferation from the 5 mm inoculum disk. The results were measured and recorded after 48 hr, up to one week. A summary of the effects of sclareol and sclareolide against the bacteria and fungi tested in Examples 1 and 2 is provided in Table 3. The data is presented as the effect of sclareol and sclareolide on selected microbial cultures, in terms of minimum inhibitory concentration, as measured in μg/ml.
# Candida kefyr = test: Antifungal MIC on potato dextrose agar; type: cell-based; conditions: Kluyveromyces marxianus, PDA, 26° C., 48 hr up to one week
# Method: as §4
# Saccharomyces cerevisiae = test: Antifungal MIC on potato dextrose agar; type: cell-based; conditions: PDA, 26° C., 48 hr up to one week
# Method: as §4
# Penicillium notatum = test: Antifungal MIC on potato dextrose agar; type: cell-based; conditions: Penicillium chrysogenum, PDA, 26° C., 48 hr up to one week
# Method: as §4
# [2] = system: Gram positive bacteria, specifically, S. aureus and P. acnes; test: Disk antibacterial test, Gram positive bacteria; type: cell-based
# Method: as §1, §2
# bacteria tested = test: Disk antibacterial test, overall; type: cell-based; conditions: in general
# Method: as §1, §2
# gram negative acne = conditions: oral, subsequent to oral tetracycline or erythromycin; Poli et al. 1988; cited from earlier work
smiles,measurement,setting,value
"CC1(C)CCCC2(C)C1CCC1(C)OC(=O)CC12 (single isomer, unassigned) [Sclareolide, sclareolide]",sensitivity to treatment,Staphylococcus aureus,more sensitive
same,Zone of inhibition,Staphylococcus aureus; 10 ug/disk,+
same,Zone of inhibition,Staphylococcus aureus; 100 ug/disk,++
same,Zone of inhibition,Staphylococcus aureus; 500 ug/disk,+++
same,Zone of inhibition,Staphylococcus aureus; 1000 ug/disk,+++
same,MIC,Staphylococcus aureus,50 µg/mL
same,sensitivity to treatment,Enterobacter aerogens,more sensitive
same,Zone of inhibition,Enterobacter aerogens; 10 ug/disk,+
same,Zone of inhibition,Enterobacter aerogens; 100 ug/disk,++
same,Zone of inhibition,Enterobacter aerogens; 500 ug/disk,+++
same,Zone of inhibition,Enterobacter aerogens; 1000 ug/disk,+++
same,MIC,Enterobacter aerogens,10 µg/mL
same,MIC,Bacillus subtilis,10 µg/mL
same,Zone of inhibition,Bacillus subtilis; 10 ug/disk,+
same,Zone of inhibition,Bacillus subtilis; 100 ug/disk,+
same,Zone of inhibition,Bacillus subtilis; 500 ug/disk,+
same,Zone of inhibition,Bacillus subtilis; 1000 ug/disk,++
same,sensitivity to treatment,Escherichia coli,least sensitive
same,Zone of inhibition,Escherichia coli; 10 ug/disk,-
same,Zone of inhibition,Escherichia coli; 100 ug/disk,-
same,Zone of inhibition,Escherichia coli; 500 ug/disk,+
same,Zone of inhibition,Escherichia coli; 1000 ug/disk,++
same,MIC,Escherichia coli,500 µg/mL
same,Zone of inhibition,[1]; 10 ug/disk,+
same,Zone of inhibition,[1]; 100 ug/disk,++
same,Zone of inhibition,[1]; 500 ug/disk,+++
same,Zone of inhibition,[1]; 1000 ug/disk,+++
same,MIC,[1],10 µg/mL
same,MIC,Propionibacterium acnes,40 µg/mL
same,sensitivity to treatment,Propionibacterium acnes,more sensitive
same,Zone of inhibition,Propionibacterium acnes; 10 ug/disk,+
same,Zone of inhibition,Propionibacterium acnes; 100 ug/disk,+++
same,Zone of inhibition,Propionibacterium acnes; 500 ug/disk,+++
same,Zone of inhibition,Propionibacterium acnes; 1000 ug/disk,+++
same,sensitivity to treatment,Pseudomonas aeruginosa,least sensitive
same,Zone of inhibition,Pseudomonas aeruginosa; 10 ug/disk,-
same,Zone of inhibition,Pseudomonas aeruginosa; 100 ug/disk,-
same,Zone of inhibition,Pseudomonas aeruginosa; 500 ug/disk,++
same,Zone of inhibition,Pseudomonas aeruginosa; 1000 ug/disk,++
same,MIC,Pseudomonas aeruginosa,500 µg/mL
same,MIC,Aspergillus flavus,1000 µg/mL
same,MIC,Candida kefyr,400 µg/mL
same,MIC,Saccharomyces cerevisiae,500 µg/mL
same,MIC,Penicillium notatum,1000 µg/mL
same,activity against Gram positive bacteria,[2],more active against Gram positive bacteria
"C=C[C@](C)(O)CC[C@@H]1[C@@]2(C)CCCC(C)(C)[C@@H]2CC[C@@]1(C)O [Sclareol, sclareol]",sensitivity to treatment,Staphylococcus aureus,more sensitive
same,Zone of inhibition,Staphylococcus aureus; 10 ug/disk,+
same,Zone of inhibition,Staphylococcus aureus; 100 ug/disk,++
same,Zone of inhibition,Staphylococcus aureus; 500 ug/disk,+++
same,Zone of inhibition,Staphylococcus aureus; 1000 ug/disk,+++
same,MIC,Staphylococcus aureus,50 µg/mL
same,sensitivity to treatment,Enterobacter aerogens,more sensitive
same,Zone of inhibition,Enterobacter aerogens; 10 ug/disk,+
same,Zone of inhibition,Enterobacter aerogens; 100 ug/disk,+++
same,Zone of inhibition,Enterobacter aerogens; 500 ug/disk,+++
same,Zone of inhibition,Enterobacter aerogens; 1000 ug/disk,+++
same,MIC,Enterobacter aerogens,10 µg/mL
same,MIC,Bacillus subtilis,10 µg/mL
same,Zone of inhibition,Bacillus subtilis; 10 ug/disk,+
same,Zone of inhibition,Bacillus subtilis; 100 ug/disk,+
same,Zone of inhibition,Bacillus subtilis; 500 ug/disk,++
same,Zone of inhibition,Bacillus subtilis; 1000 ug/disk,++
same,sensitivity to treatment,Escherichia coli,least sensitive
same,Zone of inhibition,Escherichia coli; 10 ug/disk,-
same,Zone of inhibition,Escherichia coli; 100 ug/disk,-
same,Zone of inhibition,Escherichia coli; 500 ug/disk,+
same,Zone of inhibition,Escherichia coli; 1000 ug/disk,++
same,MIC,Escherichia coli,500 µg/mL
same,Zone of inhibition,[1]; 10 ug/disk,+
same,Zone of inhibition,[1]; 100 ug/disk,++
same,Zone of inhibition,[1]; 500 ug/disk,+++
same,Zone of inhibition,[1]; 1000 ug/disk,+++
same,MIC,[1],10 µg/mL
same,MIC,Propionibacterium acnes,40 µg/mL
same,sensitivity to treatment,Propionibacterium acnes,more sensitive
same,Zone of inhibition,Propionibacterium acnes; 10 ug/disk,+
same,Zone of inhibition,Propionibacterium acnes; 100 ug/disk,+++
same,Zone of inhibition,Propionibacterium acnes; 500 ug/disk,+++
same,Zone of inhibition,Propionibacterium acnes; 1000 ug/disk,+++
same,sensitivity to treatment,Pseudomonas aeruginosa,least sensitive
same,Zone of inhibition,Pseudomonas aeruginosa; 10 ug/disk,-
same,Zone of inhibition,Pseudomonas aeruginosa; 100 ug/disk,+
same,Zone of inhibition,Pseudomonas aeruginosa; 500 ug/disk,++
same,Zone of inhibition,Pseudomonas aeruginosa; 1000 ug/disk,++
same,MIC,Pseudomonas aeruginosa,100 µg/mL
same,MIC,Aspergillus flavus,1000 µg/mL
same,MIC,Candida kefyr,100 µg/mL
same,MIC,Saccharomyces cerevisiae,500 µg/mL
same,MIC,Penicillium notatum,1000 µg/mL
same,activity against Gram positive bacteria,[2],more active against Gram positive bacteria
same,relative activity against the bacteria tested,bacteria tested,more active than sclareolide
CC1(C)S[C@@H]2[C@H](NC(=O)[C@H](N)c3ccc(O)cc3)C(=O)N2[C@H]1C(=O)O [amoxicillin],effectiveness in treating gram negative acne,gram negative acne,effective
CC1(C)S[C@@H]2[C@H](NC(=O)[C@H](N)c3ccccc3)C(=O)N2[C@H]1C(=O)O [ampicillin],effectiveness in treating gram negative acne,gram negative acne,effective
